Test results reported in patent US20220305121A1, “N-ARYL SULFONAMIDE DERIVATIVES AS VACCINE ADJUVANT” (The Regents of the University of California, priority 2019, published 2022).
“Also recorded” adds a separate entry of the source.

Experiments:
ISRE = test: Measurement of ISRE activity in ISRE-bla THP-1 cells (FRET, IFN-α as primary stimulus); type: cell-based; details: for activity at 5 µM / EC50: Homo sapiens, THP-1; for activity at 5 µM / ISRE % Activation: compound 5 μM + IFN-α 100 U/mL, 16 hours, two point normalized: compound 1 + IFN-α = 200%, IFN-α = 100%, mean; for activity at 5 µM: read-out: ISRE % Activation; for EC50: dose response in the presence of IFN-α
Outline: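 Cells at 5×10^4/well in RPMI with 10% dialyzed FBS, treated with compound at 5 μM (0.05% DMSO) plus IFN-α at 100 U/mL (final) for 16 h. CCF4-AM substrate added for 3 h at room temperature. Background-subtracted 465/535 nm emission ratio, 2-point normalized: IFN-α alone 100%, compound 1+IFN-α 200%.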

NF-κB = test: Measurement of NF-κB activation using THP1-Blue NF-κB cells (SEAP reporter, LPS as primary stimulus); type: cell-based; details: for activity at 5 µM / NF-κB % Activation: compound 5 μM + LPS, 20 hour incubation, two point normalized: compound 1 + LPS = 200%, LPS = 100%, mean
Outline: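 THP1-Blue NF-κB cells (10^5/well, RPMI + 10% FBS) were co-treated with LPS 10 μg/mL and compound 5 μM (final, […]) for 20 h. Supernatant SEAP was read by QuantiBlue colorimetry at 630 nm. Two-point normalization set LPS alone to 100% and compound 1+LPS to 200%.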

THP-1 cells = test: Cell viability assay (MTT); type: cell-based; details: compound 5 μM, 18 hours incubation; normalized to DMSO as 100%; mean
Outline: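 Cells at 10^5/well in RPMI with 10% FBS were exposed to compound at 5 μM final (0.05% DMSO) for 18 h. MTT (0.5 mg/mL) then added for 4-6 h, cells lysed overnight in SDS/HCl, absorbance read at 570 nm against 650 nm reference.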

NF-κB and ISRE = NF-κB and ISRE reporter assays (primary screens), statements in words for both assays; type: cell-based; details: for activity in NF-κB and ISRE assays (in words): with LPS or IFN-α as primary stimulus, compared to compound 1
Outline: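 Single 5 μM compound (0.05% DMSO). NF-κB: THP1-Blue cells with 10 μg/mL LPS, 20 h, SEAP by absorbance at 630 nm. ISRE: ISRE-bla THP-1 cells with 100 U/mL IFN-α, 16 h, CCF4-AM 465/535 nm ratio. Both normalized to stimulus alone as 100%, compound 1 plus stimulus as 200%.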

[1] = system: C57BL/6 (wild-type, WT) mice; test: In vivo adjuvant activity study (ovalbumin + MPLA + compound, OVA-specific IgG by ELISA); details: coimmunization with MPLA and ovalbumin; for OVA-specific IgG antibody titers: intramuscular, days 0 and 21, compared to MPLA alone
[2] = Stability of compound 48 in DMSO stock and in assay media; type: physicochemical
Procedure: However, before proceeding with syntheses of additional acylated analogs, its stability in stock solutions was evaluated since during the assay this compound could behave as a prodrug by undergoing deacetylation to release active compound 1. […] Thus, syntheses of additional acylated analogs were not pursued.

Compound	activity at 5 µM (ISRE) [%]	EC50 (ISRE) [nM]	activity at 5 µM (NF-κB) [%]	MTT % Viability (THP-1 cells) [%]	NF-κB or ISRE activity when tested alone (NF-κB and ISRE; tested alone, without LPS or IFN-α)	activity in NF-κB and ISRE assays (in words) (NF-κB and ISRE)	systemic toxicity as indicated by behavior change or weight loss [1]	OVA-specific IgG antibody titers [1]	EC50 (NF-κB; dose response in the presence of LPS) [nM]	incubation with assay media ([2]; assay media, data not shown)	stability of stock in DMSO ([2]; stock in DMSO)	ISRE % Activation (ISRE) [%]	NF-κB % Activation (NF-κB) [%]
CCOc1ccc(S(=O)(=O)Nc2cc(OC)c(Cl)cc2OC)cc1 [Compound 1, N-(4-chloro-2,5-dimethoxyphenyl)-4-ethoxybenzenesulfonamide]	200	660	200	73.5	little if any	enhanced their activation; also recorded: retained activity; also recorded: sustained NF-κB and ISRE activation	without demonstrable systemic toxicity	statistically significant increases; also recorded: significant enhancement of antibody titers					
CCOc1ccc(S(=O)(=O)N(C)c2cc(OC)c(Cl)cc2OC)cc1 [Compound 33, N-(4-chloro-2,5-dimethoxyphenyl)-4-ethoxy-N-methylbenzenesulfonamide]	215	840	235	74.5		equipotent as compound 1	without demonstrable systemic toxicity	statistically significant increases; also recorded: significant enhancement of antibody titers	690				
CCOc1ccc(S(=O)(=O)N(C(C)=O)c2cc(OC)c(Cl)cc2OC)cc1 [Compound 48, N-(4-chloro-2,5-dimethoxyphenyl)-N-((4-ethoxyphenyl)sulfonyl)acetamide]				72.0		active				release of compound 1	stable		
CCOc1ccc(S(=O)(=O)N(CCCNC(=O)CCCC[C@H]2SC[C@H]3NC(=O)N[C@H]32)c2cc(OC)c(N=[N+]=[N-])cc2OC)cc1 [Compound 64, N-(3-((N-(4-azido-2,5-dimethoxyphenyl)-4-ethoxyphenyl)sulfonamido)propyl)-5-((3aR,4R,6aS)-2-oxohexahydro-1H-thieno[3,4-d]imidazol-4-yl) pentanamide]				73.8		relatively weak activity						140	162
N-(9-(2-carboxy-44(34(N-(4-chloro-2,5-dimethoxyphenyl)-4-ethoxyphenyl)sulfonamido)propyl)carbamoyl)phenyl)-6-(diethylamino)-3H-xanthen-3-ylidene)-N-ethylethanaminium [Compound 57]				76.9		reduced activity compared to compound 1						123	111
